According to patent EP4763845A1, “CYANO AROMATIC RING DERIVATIVE AND PHARMACEUTICAL USE THEREOF” (Haisco Pharmaceutical Group Co., Ltd., priority 2023, dated 2025):

Assays:
[1] = system: Human CD34+ Hematopoietic stem cells; test: Human CD34+ hematopoietic stem cell proliferation inhibition experiment; assay type: cell-based; details: 168 h, inhibitory activity against the proliferation of CD34+ hematopoietic stem cells, 7 days
Method: Human CD34+ Hematopoietic stem cells (TPCS, Cat.hmPB34-P-2CW) are CD34-positive stem cells obtained from human PBMCs through immunomagnetic bead sorting. The culture conditions are as follows: DPBS (Gibco, Cat.14190-144) +StemSpan SFEM II ([…], Cat.9655) +1X StemSpan CD34+ Expansion Supplement ([…], Cat.2691). First, 40 nL of DMSO, the positive reference compound Talazoparib, or the test compounds were respectively added to a 384-well plate (Corning, Cat. 3764). Then, a cell suspension was added at 400 cells per well in 40 µL of medium, resulting in final concentrations of 0.1% DMSO, 3 µM Talazoparib, or various concentrations of the compounds in each well. The plate was centrifuged at room temperature at 1000 rpm for 1 minute, followed by incubation for 7 days in a 37°C, 5% CO2 incubator. Following incubation, 20 µL of CellTiter-Glo Reagent (Promega, Cat. G7573) was directly added to each well, and the plate was centrifuged at room temperature at 1000 rpm for 1 minute, followed by incubation for 20 minutes in the dark. Following incubation, the chemiluminescent signal (CFU) was read and recorded using an Envision multimode microplate reader (PerkinElmer, Cat. 2104). The cell proliferation inhibition rate at various compound concentrations was calculated according to Equation (3), where CFUhigh control represents the average signal value of the DMSO group, CFUlow control represents the average signal value of the Talazoparib group, and CFUcompound represents the average signal value of the compound-treated group. The processed data obtained from Equation (3) were analysed using XLfit or GraphPad Prism software, and a four-parameter curve fitting model was applied to calculate the compound concentration corresponding to a 50% inhibition rate, i.e., the IC50 value. Inhibition% = (CFUhigh control−CFUcompound)/(CFUhigh control−CFUlow control) × 100% [formula]

hERG potassium channel = target: T1, hERG potassium channel (Homo sapiens, UniProt Q12809); test: hERG potassium ion channel test (manual patch-clamp, CHO cells); assay type: cell-based; details: chinese hamster; inhibitory activity against hERG potassium channel current, CHO cells, whole cell patch-clamp; read-out: IC50
T1 construct: expressed in transfected cells; host or cells: CHO cells stably expressing hERG
T1 sequence (Q12809 whole entry): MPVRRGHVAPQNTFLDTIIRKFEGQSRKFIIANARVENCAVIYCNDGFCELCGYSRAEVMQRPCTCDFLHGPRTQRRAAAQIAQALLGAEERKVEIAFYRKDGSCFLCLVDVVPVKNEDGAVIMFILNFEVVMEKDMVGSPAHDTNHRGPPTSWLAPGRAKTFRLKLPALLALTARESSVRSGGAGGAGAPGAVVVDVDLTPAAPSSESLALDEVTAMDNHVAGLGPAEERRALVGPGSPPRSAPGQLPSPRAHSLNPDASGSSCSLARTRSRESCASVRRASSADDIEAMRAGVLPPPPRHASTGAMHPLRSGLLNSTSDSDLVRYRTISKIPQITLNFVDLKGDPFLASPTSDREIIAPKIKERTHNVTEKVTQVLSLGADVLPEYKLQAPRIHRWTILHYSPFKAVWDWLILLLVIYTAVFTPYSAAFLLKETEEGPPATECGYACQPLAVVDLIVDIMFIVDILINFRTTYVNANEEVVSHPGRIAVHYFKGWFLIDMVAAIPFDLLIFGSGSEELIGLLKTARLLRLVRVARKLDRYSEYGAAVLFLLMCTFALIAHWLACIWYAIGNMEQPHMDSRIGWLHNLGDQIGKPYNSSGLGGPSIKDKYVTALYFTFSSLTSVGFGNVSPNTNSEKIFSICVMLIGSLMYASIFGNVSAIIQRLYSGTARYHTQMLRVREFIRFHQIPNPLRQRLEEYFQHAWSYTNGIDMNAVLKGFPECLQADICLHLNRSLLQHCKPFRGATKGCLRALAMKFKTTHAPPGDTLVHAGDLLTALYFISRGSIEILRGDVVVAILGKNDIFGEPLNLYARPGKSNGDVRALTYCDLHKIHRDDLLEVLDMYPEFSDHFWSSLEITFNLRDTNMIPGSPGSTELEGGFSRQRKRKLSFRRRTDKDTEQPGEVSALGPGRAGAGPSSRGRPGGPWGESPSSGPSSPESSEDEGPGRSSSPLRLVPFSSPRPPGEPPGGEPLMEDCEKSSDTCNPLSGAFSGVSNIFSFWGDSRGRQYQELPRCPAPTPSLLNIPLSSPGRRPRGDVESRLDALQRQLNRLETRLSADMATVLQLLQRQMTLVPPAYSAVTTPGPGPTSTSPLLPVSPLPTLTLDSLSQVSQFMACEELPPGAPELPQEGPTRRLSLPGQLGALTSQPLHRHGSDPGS

SMILES: CC1(C)[C@H](NC(=O)c2ccc(N3CCC(CN4CCN5c6cc(F)c(C7CCC(=O)NC7=O)cc6CC[C@H]5C4)CC3)cc2)C(C)(C)[C@H]1Oc1ccc(C#N)c2ncccc12 (some centres unmarked) [Compound 31]
- IC50 [1]: > 10 µM
- IC50 (hERG potassium channel): > 40 µM
